# Measured values published in patent publication US7557137B2, “Gamma-lactams as beta-secretase inhibitors” (Bristol-Myers Squibb Company, priority 2002, dated 2009).
# Target: T1, BACE enzyme (Homo sapiens, UniProt P56817)
# T1 construct: the catalytic domain, appended by a C-terminal poly-histidine tag, is secreted out into the cellular medium; made in house; host or cells: Drosophila melanogaster S2 cells
# Experiment: BACE enzyme inhibition, fluorescence-quenched peptide substrate MCA-EVNLDAEFK(DNP)
# Format: biochemical
# Settings: 50 mM acetate, pH 4.5, 0.25 mg/ml bovine serum albumin, 2.5% DMSO; read-out: Activity Rating (based on IC50 values)
# Excerpt: There are a number of methods by which inhibitors of the BACE enzyme can be identified experimentally. The enzyme can be obtained from membrane samples from natural tissues or cultured cells or can be expressed recombinantly in a host cell by well known methods of molecular biology. […] The enzymatic activity and/or ligand binding capability of the enzyme can be assessed within these membrane samples, or the enzyme can be purified to varying extents. As an illustrative example, the nucleic acid sequence encoding the pro and catalytic domains of human BACE can be appended on the 5′ end with an untranslated and signal sequence from the gene for acetylcholinesterase, and on the 3′ end with a sequence encoding a poly-histidine tag. This cDNA can then be expressed in Drosophila melanogaster S2 cells in which the signal and pro sequences of the transcribed/translated protein are removed by cellular proteases and the catalytic domain, appended by a C-terminal poly-histidine tag, is secreted out into the cellular medium. The enzyme can then be purified from the culture medium by nickel affinity chromatography by methods well known to those trained in the art [Mallender, W. et al., (2001) “Characterization of recombinant, soluble beta-secretase from an insect cell expression system.” Mol. Pharmacol. 59: 619-626]. Similar strategies for expressing and purifying various forms of BACE in bacterial, mammalian and other cell types would be known to one skilled in the art.
# The enzyme thus obtained can be put in contact with a test compound and with an appropriate substrate on which enzyme-mediated peptide bond hydrolysis is known to occur. The ability of the test compound to diminish the rate of substrate hydrolysis can then be quantified as a measure of inhibition potency. Appropriate substrates can be prepared as peptides, proteins, or chemically modified versions of peptides or proteins, that contain an amino acid sequence that is recognized as a substrate by the enzyme. For example, the amino acid sequence immediately proximal to the beta-cleavage site within Swedish mutant APP is known to be recognized as a substrate for BACE. […] Longer peptide and protein substrates can also be designed by extending the amino acid composition on the N-terminal, the C-terminal, or both ends.
# In one known application of (SEQ. ID. NO.:1), X is a 7-methoxycoumarin-4-acetyl (MCA) group and Y is a dinitrophenyl (DNP) group [Marcinkeviciene, J. et al., (2001) “Mechanism of inhibition of beta-site amyloid precursor protein-cleaving enzyme (BACE) by a statine-based peptide.” J. Biol. Chem. 276: 23790-23794]. When this peptide is intact, the natural fluorescence of the MCA group is quenched by its proximity to the DNP group. […] The increase in fluorescence intensity that accompanies enzyme-mediated peptide hydrolysis can be measured as a function of time to quantify the velocity of enzyme catalysis. In a typical assay system the BACE enzyme is diluted into a buffer system composed of 50 mM acetate, pH 4.5 containing 0.25 mg/ml bovine serum albumin. To this is added neat dimethyl sulfoxide (DMSO) or a stock solution of test compound dissolved in DMSO so that the final amount of DMSO in all assays is held constant at 2.5% (v:v). The enzymatic reaction is then initiated by addition of a stock solution of the substrate peptide to a known concentration. The fluorescence increase with time after substrate addition is monitored with an appropriate fluorescence detection instrument, such as a microplate reader or spectrofluorometer. The slope of the signal vs. time plot (progress curve) for samples to which only DMSO was added is taken as a measure of the uninhibited velocity and represents 100% enzymatic activity.
# T1 sequence (P56817 75-416 limits assumed): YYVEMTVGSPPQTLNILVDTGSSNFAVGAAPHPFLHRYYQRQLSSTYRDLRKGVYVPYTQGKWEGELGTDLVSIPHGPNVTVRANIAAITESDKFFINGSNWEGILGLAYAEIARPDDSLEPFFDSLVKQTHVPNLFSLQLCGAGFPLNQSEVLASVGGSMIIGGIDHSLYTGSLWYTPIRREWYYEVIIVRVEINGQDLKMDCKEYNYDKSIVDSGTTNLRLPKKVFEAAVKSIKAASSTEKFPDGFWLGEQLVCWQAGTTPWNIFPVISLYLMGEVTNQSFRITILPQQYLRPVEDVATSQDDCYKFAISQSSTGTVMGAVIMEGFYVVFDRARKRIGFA
row,Structure (SMILES),IC50 [nM]
1,"COc1cccc(CNC[C@@H](O)[C@H](Cc2ccccc2)NC(=O)[C@H](CCc2ccccc2)N2CC[C@@](CC3CC3)(NC(C)=O)C2=O)c1 [Example 6, (2S)-2-(3(R)-Acetylamino-3(-cyclopropylmethyl)-2-oxo-pyrrolidin-1-yl)-N-[(1S,2R)-1-benzyl-2-hydroxy-3-(3-methoxy-benzylamino)-propyl]-4-phenyl-butyramide]",1000 to 50000
2,"CCC(C)[C@@]1(NC(=O)CN)CCN([C@@H](CCc2ccccc2)C(=O)N[C@@H](Cc2ccccc2)[C@@H](O)CNCc2cccc(OC)c2)C1=O (single isomer, unassigned) [Example 23]",1000 to 50000
3,"CCCNC(=O)N[C@]1([C@@H](C)CC)CCN([C@@H](CCc2ccccc2)C(=O)N[C@@H](Cc2ccccc2)[C@H](O)CNCc2cccc(OC)c2)C1=O [Example 17, (2S)-2-(3(S)-propylureido-3-((S)-sec-butyl)-2-oxo-pyrrolidin-1-yl)-N-[(1S,2R)-1-benzyl-2-hydroxy-3-(3-methoxy-benzylamino)-propyl]-4-phenyl-butyramide]",100 to 1000
4,"CC[C@H](C)[C@@]1(NC(C)=O)CCN([C@@H](CCc2ccccc2)C(=O)N[C@@H](Cc2ccccc2)[C@H](O)CNCc2cc(F)cc(F)c2)C1=O [Example 33, (2S)-2-(3(S)-acetylamino-3-((S)-sec-butyl)-2-oxo-pyrrolidin-1-yl)-N-[(1S,2R)-1-benzyl-2-hydroxy-3-(3,5-difluorobenzylamino)-propyl]-4-phenyl-butyramide]",< 100
5,"CC[C@H](C)[C@@]1(NC(=O)COC)CCN([C@@H](CCc2ccccc2)C(=O)N[C@@H](CC(C)C)[C@H](O)CNCc2cccc(OC)c2)C1=O [Example 5, (2S)-2-(3-((S)-sec-butyl)-3-(2-methoxy-acetylamino)-2-oxo-pyrrolidin-1-yl)-N—(S)-{1(R)-[1-hydroxy-2-(3-methoxy-benzylamino)-ethyl]-3-methyl-butyl}-4-phenyl-butyramide]",1000 to 50000
6,"COc1cccc(CNC[C@@H](O)[C@H](Cc2ccccc2)NC(=O)[C@H](CCc2ccccc2)N2CC[C@](CC3CC3)(NC(C)=O)C2=O)c1 [Example 7, (2S)-2-(3(S)-Acetylamino-3(-cyclopropylmethyl)-2-oxo-pyrrolidin-1-yl)-N-[(1S,2R)-1-benzyl-2-hydroxy-3-(3-methoxy-benzylamino)-propyl]-4-phenyl-butyramide]",< 100
7,"CC(=O)NC1(CC(C)C)CCN([C@@H](CCc2ccccc2)C(=O)N[C@@H](Cc2ccccc2)[C@H](O)CNCC2CC2)C1=O (stereo in doubt) [Example 32, (2S)-2-(3(S)-acetylamino-3-(isobutyl)-2-oxo-pyrrolidin-1-yl)-N-[(1S,2R)-1-benzyl-2-hydroxy-3-(cyclopropylmethyl)amino-propyl]-4-phenyl-butyramide]",100 to 1000
8,"CCC(=O)N[C@]1([C@@H](C)CC)CCN([C@@H](CCc2ccccc2)C(=O)N[C@@H](Cc2ccccc2)[C@H](O)CNCc2cccc(OC)c2)C1=O [Example 10, (2S)-2-(3(S)-propionylamino-3-((S)-sec-butyl)-2-oxo-pyrrolidin-1-yl)-N-[(1S,2R)-1-benzyl-2-hydroxy-3-(3-methoxy-benzylamino)-propyl]-4-phenyl-butyramide]",< 100
9,"CC[C@H](C)[C@@]1(NC(C)=O)CCN([C@@H](CCc2ccccc2)C(=O)N[C@@H](Cc2ccccc2)[C@H](O)CNCc2cccc(OC)c2)C1=O [Example 3, (2S)-2-(3(S)-Acetylamino-3-((S)-sec-butyl)-2-oxo-pyrrolidin-1-yl)-N-[(1S,2R)-1-benzyl-2-hydroxy-3-(3-methoxy-benzylamino)-propyl]-4-phenyl-butyramide]",< 100
10,"C#CCNC[C@@H](O)[C@H](Cc1ccccc1)NC(=O)[C@H](CCc1ccccc1)N1CC[C@](NC(C)=O)([C@@H](C)CC)C1=O [Example 30, (2S)-2-(3(S)-acetylamino-3-((S)-sec-butyl)-2-oxo-pyrrolidin-1-yl)-N-[(1S,2R)-1-benzyl-2-hydroxy-3-(propargylamino)-propyl]-4-phenyl-butyramide]",< 100
11,"CCC(C)[C@@]1(NC(=O)CN)CCN([C@@H](CCc2ccccc2)C(=O)N[C@@H](Cc2ccccc2)[C@H](O)CNCc2cccc(OC)c2)C1=O (single isomer, unassigned) [Example 22]",100 to 1000
12,"COc1cccc(CNC[C@@H](O)[C@H](Cc2cc(F)cc(F)c2)NC(=O)[C@H](CCc2cccc(F)c2)N2CCC(CC3CC3)(NC(C)=O)C2=O)c1 (stereo in doubt) [Example 40, (2S)-2-(3(S)-acetylamino-3-(cyclopropylmethyl)-2-oxo-pyrrolidin-1-yl)-N-[(1S,2R)-1-(3,5-difluorobenzyl)-2-hydroxy-3-(3-methoxybenzylamino)-propyl]-4-(3-fluorophenyl)-butyramide]",< 100
13,"COc1cccc(CNC[C@@H](O)[C@H](Cc2ccccc2)NC(=O)[C@H](CCc2ccccc2)N2CCC(CC(C)C)(NC(C)=O)C2=O)c1 (stereo in doubt) [Example 28, (2S)-2-(3(S)-acetylamino-3-(isobutyl)-2-oxo-pyrrolidin-1-yl)-N-[(1S,2R)-1-benzyl-2-hydroxy-3-(3-methoxy-benzylamino)-propyl]-4-phenyl-butyramide]",< 100
14,"CCC(=O)N[C@]1([C@@H](C)CC)CCN([C@@H](CCc2ccccc2)C(=O)N[C@@H](CC(C)C)[C@H](O)CNCc2cccc(OC)c2)C1=O [Example 4, 2(S)-(3(S)-((S)-sec-butyl)-2-oxo-3-propionylamino-pyrrolidin-1-yl)-N—(S)-{1(R)-[1-hydroxy-2-(3-methoxy-benzylamino)-ethyl]-3-methyl-butyl}-4-phenyl-butyramide]",100 to 1000
15,"CCOC(=O)N[C@]1([C@@H](C)CC)CCN([C@@H](CCc2ccccc2)C(=O)N[C@@H](Cc2ccccc2)[C@@H](O)CNCc2cccc(OC)c2)C1=O [Example 13, (2S)-2-(3(S)-ethoxycarbonylamino-3-((S)-sec-butyl)-2-oxo-pyrrolidin-1-yl)-N-[(1S,2S)-1-benzyl-2-hydroxy-3-(3-methoxy-benzylamino)-propyl]-4-phenyl-butyramide]",1000 to 50000
16,"CC[C@H](C)[C@@]1(NC(=O)C(F)(F)F)CCN([C@@H](CCc2ccccc2)C(=O)N[C@@H](Cc2ccccc2)[C@H](O)CNCc2cccc(OC)c2)C1=O [Example 19, (2S)-2-(3(S)-(trifluoroacetyl)amino-3-((S)-sec-butyl)-2-oxo-pyrrolidin-1-yl)-N-[(1S,2R)-1-benzyl-2-hydroxy-3-(3-methoxy-benzylamino)-propyl]-4-phenyl-butyramide]",100 to 1000
17,"CC[C@H](C)[C@@]1(NC(C)=O)CCN([C@@H](CCc2ccccc2)C(=O)N[C@@H](Cc2ccccc2F)[C@H](O)CNCc2cccc(OC)c2)C1=O [Example 11, (2S)-2-(3(S)-acetylamino-3-((S)-sec-butyl)-2-oxo-pyrrolidin-1-yl)-N-[(1S,2R)-1-(2-fluorobenzyl)-2-hydroxy-3-(3-methoxy-benzylamino)-propyl]-4-phenyl-butyramide]",100 to 1000
18,COc1cccc(CNC[C@@H](O)[C@H](Cc2cc(F)cc(F)c2)NC(=O)[C@H](CCc2ccc3c(c2)OCO3)N2CC[C@@](CC3CC3)(NC(C)=O)C2=O)c1 [Example 39],< 100
19,CC[C@H](C)[C@@]1(NC(=O)[C@@H](N)CCC(=O)O)CCN([C@@H](CCc2ccccc2)C(=O)N[C@@H](Cc2ccccc2)[C@H](O)CNCc2cccc(OC)c2)C1=O [Example 8],< 100
20,"CCC(C)[C@@]1(NC(=O)OC)CCN([C@@H](CCc2ccccc2)C(=O)N[C@@H](Cc2ccccc2)[C@H](O)CNCc2cccc(OC)c2)C1=O (single isomer, unassigned) [Example 16]",< 100
